Experiments:
[1] = test system: primary MM cells (BM-MNCs from 26 MM patients); test: Ex vivo ATRA exposure of primary MM cells, surface antigen expression by flow cytometry; type: cell-based, human; conditions: 10 nM ATRA, 48 hours
Description: (§1) Expression of several cell surface proteins was determined by flow cytometric analysis using FITC-, PE-, Per-CP-, or APC-conjugated monoclonal antibodies. Anti-CD38, anti-CD138, and anti-CD56 were purchased from Beckman Coulter; anti-CD3, anti-CD16, anti-CD55, anti-CD59 from BD Biosciences; and anti-CD46 from Biolegend. Flow cytometry was done using a FACS-Calibur device (Becton Dickinson); the data were analyzed using the CellQuest software.
Ex vivo ATRA exposure (10 nM, 48 hours) of primary MM cells from 26 patients was also studied. In these experiments, BM-MNCs from 26 MM patients were incubated with RPMI-1640 medium alone or with 10 nM ATRA for 48 hours, incubated at 4° C. for 20 min with FITC-conjugated CD38 antibody (Beckman Coulter) and then harvested to determine CD38 expression by flow cytometry. Flow cytometric analyses were performed using a FACS-Calibur device (Becton Dickinson); the data were analyzed using the CellQuest software.

XG-1 cells [2] = test: CD38 expression by flow cytometry, XG-1; type: cell-based, human; conditions: ATRA
Description: as §1
(§2) Interaction of ATRA with nuclear retinoic acid receptors results in altered expression of target genes including induction of CD38 expression (Malavasi F. J Leukoc Biol 90:217-219, 2011; Drach et al., Cancer Res 54:1746-1752, 1994). Therefore, effect of ATRA on MM cell lines RPMI8226, UM9, and XG1 was studied. MM cells were incubated with RPMI-1640 medium alone or with ATRA ranging from 0-25 nM for 48 hours (FIG. 1A) or were incubated with 10 nM ATRA for 24, 48, 72 or 96 hours (FIG. 1B) and then harvested to determine CD38 expression by flow cytometry using a FACS-Calibur device (Becton Dickinson) and anti-CD38 antibody (Beckman Coulter). The data were analyzed using the CellQuest software.

RPMI8226 cells [3] = test: BLI-based ADCC assay, RPMI8226; conditions: 10 nM ATRA 48 hours
Description: (§5) For MM cell lines, CDC and ADCC were assessed using bioluminescence imaging (BLI) based ADCC and CDC assays as described above. For primary MM cells, CDC and ADCC were assessed using Flow cytometry-based ex vivo ADCC and CDC assays in BM-MNC as described above. […] Isotype control was added at 10 μg/ml, and 10% heat-inactivated serum was used as control for CDC.

UM9 cells [4] = test: CD38 expression by flow cytometry, UM9; type: cell-based, human; conditions: ATRA
Description: as §1, §2

RPMI8226 cells [5] = test: BLI-based CDC assay, RPMI8226; type: cell-based, human; conditions: 10 nM ATRA 48 hours
XG-1 cells [6] = test: BLI-based ADCC assay, XG-1; conditions: 10 nM ATRA 48 hours vs solvent control
Description: as §5

UM9 cells [7] = test: BLI-based ADCC assay, UM9; conditions: 10 nM ATRA 48 hours vs solvent control
Description: as §5

[8] = test system: MM cell lines RPMI8226, UM9, and XG1; test: CD38 expression on MM cell lines by flow cytometry (pooled statement); type: cell-based, human
Description: as §1, §2

[9] = test system: MM cell lines XG-1, RPMI8226 and UM9; test: BLI-based ADCC and CDC assays, ATRA alone; type: cell-based, human; conditions: 10 nM ATRA alone
[10] = test system: luciferase-transduced XG1 multiple myeloma cells; test: Humanized multiple myeloma mouse model, tumor growth by BLI; type: in vivo, RAG2−/−γc−/− mice; conditions: for tumor progression (BLI): single agent plus PBMC-T, daratumumab 8 mg/kg i.p., ATRA 10 mg/kg i.p., weekly BLI for 5 weeks
Description: Hybrid scaffolds consisting of three 2-3 mm biphasic calcium phosphate particles were coated in vitro with human mesenchymal stromal cells (MSCs; 2×10^5 cells/scaffold). After a week of in vitro culture in a osteogenic medium, humanized scaffolds were implanted subcutaneously into RAG2^−/−γc^−/− mice, as described previously (Groen et al., Blood. 19; 120:e9-e16, 2012; de Haart et al., Clin. Cancer Res. 19:5591-5601, 2013).
Eight weeks after implantation, mice received a sublethal irradiation dose (3 Gy, 200 kV, 4 mA) and luciferase-transduced XG1 cells were injected directly into the scaffold (1×10^6 cells/scaffold). […] PBMC-T were prepared by Ficoll-Hypaque density-gradient centrifugation of buffy coats, and subsequent depletion of T cells by CD3-beads using the Easy Sep™-technology ([…] Technologies). Tumor growth was monitored by weekly BLI measurements as described previously (Groen et al., Blood. 19; 120:e9-e16, 2012). All animal experiments were conducted after acquiring permission from the local ethical committee for animal experimentation and were in compliance with the Dutch Animal Experimentation Act. The statistical differences between the different treatment groups in the mice experiments were calculated using a Mann-Whitney test. P-values below 0.05 were considered significant.
Luciferase-transduced XG1 multiple myeloma cells developed into aggressive tumors in immunodeficient RAG2^−/−γc^−/− mice in a humanized bone marrow microenvironment generated by subcutaneous implantation of MSC-coated ceramic scaffolds. […] To follow the outgrowth of the tumor, BLI was performed weekly for 5 weeks.

[11] = test system: primary MM cells derived from 16 patients; test: Complement-inhibitory protein expression on primary MM cells by flow cytometry; type: cell-based, human; conditions: 10 nM ATRA, 48 h
Description: as §1
(§3) The effect of ATRA on effector cells was evaluated. […] In the experiments, cells were cultured at 37° C. with RPMI-1640 medium with or without 10 nM ATRA 10 nM for 48 h. Cells were then incubated at 4° C. for 20 min with the appropriate conjugated antibodies panel. Flow cytometric analyses were performed using a FACS-Calibur device (Becton Dickinson); the data were analyzed using the CellQuest software.

XG-1 cells [12] = test: BLI-based CDC assay, XG-1; type: cell-based, human; conditions: 10 nM ATRA 48 hours vs solvent control
primary MM cells [13] = test: Flow cytometry-based ex vivo CDC assay in BM-MNC; type: cell-based, human; conditions: for CDC, median: 10 μg/mL daratumumab, pooled patients
Description: (§4) Freshly isolated BM-MNCs, containing 2-57% malignant plasma cells as determined by flow cytometry, were immediately used in ex vivo experiments. […] Pooled human serum (10%) was used as a source of complement. The survival of primary CD138^+ MM cells in the BM-MNCs was determined by flow-cytometry as previously described (van der Veers et al., Haematologica 96:284-290, 2011; van der Veers et al., Blood Cancer J 1:e41, 2011). Surviving MM cells were enumerated by single platform flow-cytometric analysis of CD138^+ cells (with CD138-PE (Beckman Coulter, Miami, Fla., USA)) in the presence of Flow-Count Fluorospheres (Beckman Coulter) to determine absolute numbers of cells.

RPMI8226 cells [14] = test: CD38 expression by flow cytometry, RPMI8226; type: cell-based, human; conditions: ATRA
Description: as §1, §2

[15] = test system: RPMI8226, L363 and XG-1 cells; test: Complement-inhibitory protein expression on MM cell lines by flow cytometry; type: cell-based, human; conditions: 0-25 nM ATRA, 48 hour
Description: as §1, §3

[16] = test system: PBMCs from healthy donors; human MM cell lines L363-CD38, LME-1, RPMI8226 and UM9; test: Effect of ATRA on effector cells (PBMC-induced ADCC); type: cell-based; conditions: data not shown
Description: as §3

primary MM cells [17] = test: Flow cytometry-based ex vivo ADCC assay in BM-MNC; type: cell-based, human; conditions: for ADCC, median: 10 μg/mL daratumumab, pooled patients
Description: as §4, with “experiments. […] Sample viability at incubation was more than 98%, as assessed by using ToPro-3 (Invitrogen/Molecular Probes).” for “experiments.”

[18] = after 10 nM ATRA pretreatment 48 hours

Compound: CC1=C(/C=C/C(C)=C/C=C/C(C)=C/C(=O)O)C(C)(C)CCC1 [ATRA, all-trans retinoic acid]
- CD138 expression levels, median increase [1]: 2.0 fold
- expression of CD56 [1]: no significant changes
- expression of HLA A/B/C [1]: no significant changes
- CD38 expression increase, range ([1]; 26 patients): 1.0-26.5 fold
- CD38 expression, median increase ([1]; 26 patients): 1.7 fold
- enhanced CD38 expression (XG-1 cells [2]): 2.9 fold
- effect of ATRA pretreatment on daratumumab-mediated ADCC (RPMI8226 cells [3]): no significant improvement
- enhanced CD38 expression (UM9 cells [4]): 4.4 fold
- effect of ATRA pretreatment on daratumumab-mediated CDC (RPMI8226 cells [5]): no significant improvement
- effect of ATRA pretreatment on daratumumab-mediated ADCC (XG-1 cells [6]): significantly increased
- effect of ATRA pretreatment on daratumumab-mediated ADCC (UM9 cells [7]): significantly increased
- increase in CD38 expression ([8]; 10 nM ATRA (minimum sufficient), 48 hours, RPMI8226, UM9, XG1): 1.9-4.4 fold
- time of maximum enhancement of CD38 expression ([8]; 10 nM ATRA for 24, 48, 72 or 96 hours): 48 h
- CD38 expression at higher doses of ATRA ([8]; doses above 10 nM up to 25 nM, 48 hours): did not further enhance
- MM cell lysis by ATRA alone [9]: no MM cell lysis
- effect of ATRA on anti-MM effect of daratumumab ([10]; daratumumab 8 mg/kg plus ATRA 10 mg/kg plus PBMC-T vs daratumumab plus PBMC-T): significantly enhanced
- tumor progression (BLI) [10]: no effect
- CD46 expression levels [11]: did not significantly affect
- expression of CD59, mean reduction ([11]; P=0.0047): 37.5%
- expression of CD55, mean reduction ([11]; P=0.019): 21.3%
- effect of ATRA pretreatment on daratumumab-mediated CDC (XG-1 cells [12]): significantly increased
- patients with significant increase in susceptibility to daratumumab-mediated CDC (primary MM cells [13]; ATRA pretreatment 48 hours): 13 out of 16
- effect of ATRA on daratumumab-mediated CDC in cells not responsive to daratumumab alone (primary MM cells [13]; for example patients 1, 4, 8, 12, 13, 15 and 16): induced daratumumab-mediated CDC
- effect of ATRA enhancing daratumumab-mediated CDC in some patient samples (primary MM cells [13]; for example patients 6, 7 and 14): no additional effect
- upregulation of CD38 expression (RPMI8226 cells [14]): 1.9 fold
- CD46 expression levels [15]: reduced expression levels
- CD55 expression levels [15]: reduced expression levels
- CD59 expression levels [15]: reduced expression levels
- effect on ability of PBMCs to induce ADCC [16]: no effect or minimal effect
- patients with significant increase in susceptibility to daratumumab-mediated ADCC (primary MM cells [17]; ATRA pretreatment 48 hours): 8 out of 11
- effect of ATRA on daratumumab-mediated ADCC (primary MM cells [17]; most primary MM cells tested): induced daratumumab-mediated ADCC

Compound: daratumumab: anti-CD38 antibody, IgG1/κ, VH SEQ ID NO: 4, VL SEQ ID NO: 5, heavy chain SEQ ID NO: 12, light chain SEQ ID NO: 13
- tumor progression (BLI) [10]: markedly slowed tumor progression
- CDC, median (primary MM cells [13]; [18]): 43.9%
- CDC, median (primary MM cells [13]; without ATRA pretreatment): 16.1%
- ADCC, median (primary MM cells [17]; [18]): 39.5%
- ADCC, median (primary MM cells [17]; without ATRA pretreatment): 25.1%
